For this experiment, the target named is T1, WIZ (Homo sapiens, UniProt O95785+Q96SW2).
T1 construct: expressed in transfected cells
Briefly: Quantification of WIZ protein levels in HiBit tag fusion protein assay (293T cells). It is filed as cell-based. The following applies: for remaining activity at 25 µM / Dmax at 25 µM / Dmax: HEK-293T; for remaining activity at 25 µM: read-out: WIZ Amax; for Dmax at 25 µM: 100 − Amax; for Dmax at 25 µM / Dmax: read-out: % degradation of WIZ (100 − Amax); for DC50: WIZ HiBit assay in 293T cells, about 18 hours, 10-point 5-fold dilution, top 25 μM, read-out: WIZ AC50. Also on record: Dmax: dose or concentration left out as unconfirmed. The gist of the method:
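293T cells stably carrying a single-copy HiBit-WIZ fusion were exposed to compounds for about 18 hours at 37° C., top concentration 25 μM, 10-point 5-fold series. Lysates were complemented with LgBit and luminescence was read. Amax is the DMSO-normalized, curve-fitted percentage of WIZ-HiBit remaining at 25 uM.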
For orientation: HiBiT is a short tag that completes a luciferase, so light tracks the accessible tagged protein.

Where [1] appears, read: DMSO-normalized, curve-fitted percentage of WIZ-HiBit remaining at 25 uM.

Molecules are shown by their SMILES. Where two headings read alike, the source gives them in different places. Where only a bound is given, the exact number is not on record here.

T1 sequence (O95785 whole entry): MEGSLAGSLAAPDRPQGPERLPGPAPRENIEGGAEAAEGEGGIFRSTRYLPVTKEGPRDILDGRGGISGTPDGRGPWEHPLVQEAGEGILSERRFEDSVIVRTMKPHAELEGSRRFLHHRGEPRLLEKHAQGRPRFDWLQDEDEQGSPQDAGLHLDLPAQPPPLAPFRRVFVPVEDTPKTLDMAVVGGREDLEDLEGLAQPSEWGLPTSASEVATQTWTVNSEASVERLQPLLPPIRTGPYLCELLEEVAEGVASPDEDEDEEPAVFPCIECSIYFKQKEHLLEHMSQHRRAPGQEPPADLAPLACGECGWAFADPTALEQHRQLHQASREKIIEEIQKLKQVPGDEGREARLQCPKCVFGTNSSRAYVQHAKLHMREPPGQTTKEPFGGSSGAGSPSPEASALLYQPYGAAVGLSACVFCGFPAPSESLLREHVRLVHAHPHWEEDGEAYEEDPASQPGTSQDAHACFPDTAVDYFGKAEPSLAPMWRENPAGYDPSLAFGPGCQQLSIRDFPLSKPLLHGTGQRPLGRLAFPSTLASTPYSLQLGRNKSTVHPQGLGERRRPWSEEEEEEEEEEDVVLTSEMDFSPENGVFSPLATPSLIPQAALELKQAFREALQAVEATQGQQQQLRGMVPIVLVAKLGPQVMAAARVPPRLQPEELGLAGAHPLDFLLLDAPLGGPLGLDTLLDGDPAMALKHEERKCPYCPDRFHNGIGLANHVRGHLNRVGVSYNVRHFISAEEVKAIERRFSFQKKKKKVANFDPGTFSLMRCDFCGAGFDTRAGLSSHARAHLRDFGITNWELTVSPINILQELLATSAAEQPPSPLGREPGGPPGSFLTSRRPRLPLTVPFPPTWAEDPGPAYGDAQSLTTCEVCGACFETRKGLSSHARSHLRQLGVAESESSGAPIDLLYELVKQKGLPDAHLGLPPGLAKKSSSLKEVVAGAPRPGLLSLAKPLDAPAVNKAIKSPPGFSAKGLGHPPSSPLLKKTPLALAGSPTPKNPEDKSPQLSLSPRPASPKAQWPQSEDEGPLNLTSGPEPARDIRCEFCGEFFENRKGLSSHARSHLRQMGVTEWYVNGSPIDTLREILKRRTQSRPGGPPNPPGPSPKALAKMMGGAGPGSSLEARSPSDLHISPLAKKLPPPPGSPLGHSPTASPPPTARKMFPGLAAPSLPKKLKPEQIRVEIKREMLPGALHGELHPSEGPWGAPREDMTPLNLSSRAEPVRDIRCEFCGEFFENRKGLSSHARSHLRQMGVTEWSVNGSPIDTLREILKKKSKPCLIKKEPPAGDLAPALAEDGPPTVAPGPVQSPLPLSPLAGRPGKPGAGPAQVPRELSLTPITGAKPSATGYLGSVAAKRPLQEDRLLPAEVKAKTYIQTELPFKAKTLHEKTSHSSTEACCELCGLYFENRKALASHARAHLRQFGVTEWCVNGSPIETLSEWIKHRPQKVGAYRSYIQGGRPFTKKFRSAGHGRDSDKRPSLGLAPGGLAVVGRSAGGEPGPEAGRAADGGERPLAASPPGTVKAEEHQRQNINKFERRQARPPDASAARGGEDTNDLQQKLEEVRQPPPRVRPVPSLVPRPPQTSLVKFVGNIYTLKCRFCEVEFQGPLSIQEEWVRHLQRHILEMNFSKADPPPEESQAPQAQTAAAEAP
T1 sequence (Q96SW2 whole entry): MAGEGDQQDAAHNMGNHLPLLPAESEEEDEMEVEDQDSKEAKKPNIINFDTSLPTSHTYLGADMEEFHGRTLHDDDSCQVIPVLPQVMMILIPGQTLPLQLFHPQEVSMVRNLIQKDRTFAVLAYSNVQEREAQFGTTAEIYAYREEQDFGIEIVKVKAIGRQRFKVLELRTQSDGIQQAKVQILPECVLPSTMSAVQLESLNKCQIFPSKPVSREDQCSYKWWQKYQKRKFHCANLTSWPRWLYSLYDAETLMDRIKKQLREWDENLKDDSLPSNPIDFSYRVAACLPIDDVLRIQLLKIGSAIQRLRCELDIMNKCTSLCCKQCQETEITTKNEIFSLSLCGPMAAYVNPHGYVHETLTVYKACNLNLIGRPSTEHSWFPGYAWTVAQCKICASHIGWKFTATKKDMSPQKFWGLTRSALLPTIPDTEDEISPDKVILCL
T1 sequence (Q16531 whole entry partner): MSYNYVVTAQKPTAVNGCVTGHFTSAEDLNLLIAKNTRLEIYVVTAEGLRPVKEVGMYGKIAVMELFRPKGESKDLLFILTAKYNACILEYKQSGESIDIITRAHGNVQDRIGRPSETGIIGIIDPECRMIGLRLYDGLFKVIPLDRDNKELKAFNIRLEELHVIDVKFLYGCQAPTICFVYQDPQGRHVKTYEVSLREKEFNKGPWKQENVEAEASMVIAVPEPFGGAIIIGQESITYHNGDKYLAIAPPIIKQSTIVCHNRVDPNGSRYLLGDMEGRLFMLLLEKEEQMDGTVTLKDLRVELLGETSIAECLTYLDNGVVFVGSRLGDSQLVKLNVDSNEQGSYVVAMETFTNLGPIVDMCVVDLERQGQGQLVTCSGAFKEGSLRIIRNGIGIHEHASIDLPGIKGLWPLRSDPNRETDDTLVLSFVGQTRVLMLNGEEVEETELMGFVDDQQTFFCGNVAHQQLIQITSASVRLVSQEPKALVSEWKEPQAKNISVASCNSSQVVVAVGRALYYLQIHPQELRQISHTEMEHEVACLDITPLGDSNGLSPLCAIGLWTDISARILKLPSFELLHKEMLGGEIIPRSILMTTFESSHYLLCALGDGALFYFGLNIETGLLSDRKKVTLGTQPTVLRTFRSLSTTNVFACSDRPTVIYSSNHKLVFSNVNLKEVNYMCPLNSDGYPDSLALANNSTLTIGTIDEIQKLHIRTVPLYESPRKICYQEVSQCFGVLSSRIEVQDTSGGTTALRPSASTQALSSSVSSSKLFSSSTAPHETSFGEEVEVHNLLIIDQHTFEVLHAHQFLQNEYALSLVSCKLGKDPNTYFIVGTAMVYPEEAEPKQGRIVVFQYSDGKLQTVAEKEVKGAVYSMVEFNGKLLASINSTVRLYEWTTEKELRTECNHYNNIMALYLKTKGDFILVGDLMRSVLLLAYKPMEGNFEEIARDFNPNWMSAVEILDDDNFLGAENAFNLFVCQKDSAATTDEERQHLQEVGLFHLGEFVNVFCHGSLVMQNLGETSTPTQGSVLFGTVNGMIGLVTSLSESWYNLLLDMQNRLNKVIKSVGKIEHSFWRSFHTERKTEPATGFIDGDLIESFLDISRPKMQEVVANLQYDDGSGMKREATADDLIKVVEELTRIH

Regarding `C=CCCN1CCC[C@@H](Oc2ccc3c(c2)CN(C2CCC(=O)NC2=O)C3=O)C1` (stereo partly drawn) [Example 31, 3-(5-(((R)-1-(but-3-en-1-yl)piperidin-3-yl)oxy)-1-oxoisoindolin-2-yl)piperidine-2,6-dione], the Dmax at 25 µM worked out at 68.6% and the DC50 worked out at 8.9 nM. Under setting [1], the remaining activity at 25 µM was 31.4%.

Consider `CC[C@@H](C)N1CCC[C@@H](Oc2ccc3c(c2)CN(C2CCC(=O)NC2=O)C3=O)C1` (stereo partly drawn) [Example 32, 3-(5-(((R)-1-((R)-sec-butyl)piperidin-3-yl)oxy)-1-oxoisoindolin-2-yl)piperidine-2,6-dione], for which the Dmax at 25 µM was determined as 80.8% and the DC50 stood at 1.7 nM. In addition, the remaining activity at 25 µM under setting [1] turned out to be 19.2%.

Turning to `CC[C@H](C)N1CCC[C@@H](Oc2ccc3c(c2)CN(C2CCC(=O)NC2=O)C3=O)C1` (stereo partly drawn) [Example 33, 3-(5-(((R)-1-((S)-sec-butyl)piperidin-3-yl)oxy)-1-oxoisoindolin-2-yl)piperidine-2,6-dione], the Dmax at 25 µM is 81.4% and the DC50 stood at 1.5 nM. For the same compound, the remaining activity at 25 µM under setting [1] is 18.6%.

Take `CCN1CCCC[C@@H](Oc2ccc3c(c2)CN(C2CCC(=O)NC2=O)C3=O)C1` (stereo partly drawn) [Example 36, 3-(5-(((R)-1-ethylazepan-3-yl)oxy)-1-oxoisoindolin-2-yl)piperidine-2,6-dione]: the Dmax worked out at 67.5%, the remaining activity at 25 µM amounted to 32.5% and the DC50 worked out at 57 nM.

Take `CCN1CCCC[C@H](Oc2ccc3c(c2)CN(C2CCC(=O)NC2=O)C3=O)C1` (stereo partly drawn) [Example 37, 3-(5-(((S)-1-ethylazepan-3-yl)oxy)-1-oxoisoindolin-2-yl)piperidine-2,6-dione]: the remaining activity at 25 µM worked out at 103% and the DC50 is more than 25000 nM.

For the compound `CC(C)CN1CCCC[C@@H](Oc2ccc3c(c2)CN(C2CCC(=O)NC2=O)C3=O)C1` (stereo partly drawn) [Example 38, 3-(5-(((R)-1-isobutylazepan-3-yl)oxy)-1-oxoisoindolin-2-yl)piperidine-2,6-dione], the Dmax at 25 µM came out at 64.3% and the DC50 is 25 nM. Under setting [1], the remaining activity at 25 µM stood at 35.6%.

In the case of `CCN1CC[C@@H](Oc2ccc3c(c2)CN(C2CCC(=O)NC2=O)C3=O)C1` (stereo partly drawn) [Example 39, 3-(5-(((R)-1-ethylpyrrolidin-3-yl)oxy)-1-oxoisoindolin-2-yl)piperidine-2,6-dione], the Dmax is 52.1%, the remaining activity at 25 µM worked out at 47.9% and the DC50 came out at 210 nM.

Regarding `CCN1CC[C@H](Oc2ccc3c(c2)CN(C2CCC(=O)NC2=O)C3=O)C1` (stereo partly drawn) [Example 40, 3-(5-(((S)-1-ethylpyrrolidin-3-yl)oxy)-1-oxoisoindolin-2-yl)piperidine-2,6-dione], the Dmax at 25 µM was 26.5% and the DC50 was found to be 770 nM. Under setting [1], the remaining activity at 25 µM stood at 73.5%.

As to `O=C1CCC(N2Cc3cc(O[C@@H]4CCCN(C5CCCC5)C4)ccc3C2=O)C(=O)N1` (stereo partly drawn) [Example 42, 3-(5-(((R)-1-cyclopentylpiperidin-3-yl)oxy)-1-oxoisoindolin-2-yl)piperidine-2,6-dione], the Dmax at 25 µM stood at 77.1% and the DC50 worked out at 3.6 nM. The remaining activity at 25 µM under setting [1] was found to be 22.9%.

On to `O=C1CCC(N2Cc3cc(O[C@@H]4CCCN(C5CCCCC5)C4)ccc3C2=O)C(=O)N1` (stereo partly drawn) [Example 43, 3-(5-(((R)-1-cyclohexylpiperidin-3-yl)oxy)-1-oxoisoindolin-2-yl)piperidine-2,6-dione], for which the Dmax at 25 µM worked out at 71.9% and the DC50 came to 3.7 nM. Besides, under setting [1], the remaining activity at 25 µM is 28.1%.

Take `CCN1C[C@@H](F)C[C@@H](Oc2ccc3c(c2)CN(C2CCC(=O)NC2=O)C3=O)C1` (stereo partly drawn) [Example 59, 3-(5-(((3R,5S)-1-ethyl-5-fluoropiperidin-3-yl)oxy)-1-oxoisoindolin-2-yl)piperidine-2,6-dione]: the Dmax turned out to be 64.4%, the remaining activity at 25 µM is 35.6% and the DC50 was determined as 2.6 nM.

The record behind these values is US12103919B2, “3-(5-oxy)-1-oxoisoindolin-2-yl)piperidine-2,6-dione derivatives and uses thereof” (NOVARTIS AG, priority 2021, dated 2024).
